What follows are compounds tested on Mus musculus (assay: ED50 value as cholinergic agonism by measuring lacrimation in mice (in vivo)).
Assay type: functional

SMILES | ED50 [mg/kg]
Cc1cncn1CC#CCN(C)C(=O)N(C)C | > 100
Cn1ccn(CC#CCn2ccnc2)c1=O | 4.4
Cn1ccn(CC#CCN2CCCC2)c1=O | 6.6
Cc1cn(CC#CCN2CCCC2=O)cn1 | > 100
CN1CCN(CC#CCN2CCCC2)C1=O | 0.3
CC(=O)N(C)C(C)C#CCn1ccnc1C (configuration not stated) | > 100
CC(=O)N(C)C(C)C#CCn1ccnc1 (configuration not stated) | 3
CN(C)CC#CCN1CCNC1=O | 9.7
CCc1nccn1CC#CCN1CCCC1=O | > 100
O=C1NCCN1CC#CCN1CCCC1 | > 3

The compounds below were run on Mus musculus (assay: ED50 value determined as oxotremorine antagonism by measuring salivation in mice (in vivo)).
Assay type: functional

SMILES | ED50 [mg/kg]
Cc1cncn1CC#CCN(C)C(=O)N(C)C | 11.8
Cn1ccn(CC#CCn2ccnc2)c1=O | > 100
Cn1ccn(CC#CCN2CCCC2)c1=O | > 10
Cc1cn(CC#CCN2CCCC2=O)cn1 | 37
CN1CCN(CC#CCN2CCCC2)C1=O | > 3
CC(=O)N(C)C(C)C#CCn1ccnc1C (configuration not stated) | 0.2
CC(=O)N(C)C(C)C#CCn1ccnc1 (configuration not stated) | > 100
CN(C)CC#CCN1CCNC1=O | > 100
CCc1nccn1CC#CCN1CCCC1=O | 2.5
O=C1NCCN1CC#CCN1CCCC1 | > 3

These compounds were tested on Mus musculus (assay: ED50 value as cholinergic agonist by measuring tremors in mice (in vivo)).
Assay type: functional

SMILES | ED50 [mg/kg]
Cc1cncn1CC#CCN(C)C(=O)N(C)C | 45.2
Cn1ccn(CC#CCn2ccnc2)c1=O | 4.5
Cn1ccn(CC#CCN2CCCC2)c1=O | 3.7
CN1CCN(CC#CCN2CCCC2)C1=O | 0.14
CC(=O)N(C)C(C)C#CCn1ccnc1C (configuration not stated) | > 100
CC(=O)N(C)C(C)C#CCn1ccnc1 (configuration not stated) | 2
CN(C)CC#CCN1CCNC1=O | 9.7
CCc1nccn1CC#CCN1CCCC1=O | > 100

Each compound was assayed against Muscarinic acetylcholine receptor (assay: Binding affinity to muscarinic acetylcholine receptor was determined in presence of [3H]QNB radioligand (in vitro)).
Assay type: protein assay

SMILES | Ki [nM]
Cc1cncn1CC#CCN(C)C(=O)N(C)C | > 10000
Cn1ccn(CC#CCn2ccnc2)c1=O | > 10000
Cn1ccn(CC#CCN2CCCC2)c1=O | 510
Cc1cn(CC#CCN2CCCC2=O)cn1 | 377
CN1CCN(CC#CCN2CCCC2)C1=O | 180
CC(=O)N(C)C(C)C#CCn1ccnc1C (configuration not stated) | 19
CC(=O)N(C)C(C)C#CCn1ccnc1 (configuration not stated) | 1500
CN(C)CC#CCN1CCNC1=O | > 10000
CCc1nccn1CC#CCN1CCCC1=O | 56.9
O=C1NCCN1CC#CCN1CCCC1 | 800

What follows are compounds tested on Mus musculus (assay: ED50 value determined as oxotremorine antagonism by measuring tremors in mice (in vivo)).
Assay type: functional

SMILES | ED50 [mg/kg]
Cc1cncn1CC#CCN(C)C(=O)N(C)C | > 100
Cc1cn(CC#CCN2CCCC2=O)cn1 | > 100
O=C1NCCN1CC#CCN1CCCC1 | > 3

What follows are compounds tested on Mus musculus (assay: ED50 value as cholinergic agonist by measuring salivation in mice (in vivo)).
Assay type: functional

SMILES | ED50 [mg/kg]
Cn1ccn(CC#CCn2ccnc2)c1=O | 3.7
Cn1ccn(CC#CCN2CCCC2)c1=O | 6.6
Cc1cn(CC#CCN2CCCC2=O)cn1 | > 100
CN1CCN(CC#CCN2CCCC2)C1=O | 0.21
CC(=O)N(C)C(C)C#CCn1ccnc1C (configuration not stated) | > 100
CC(=O)N(C)C(C)C#CCn1ccnc1 (configuration not stated) | 3
CN(C)CC#CCN1CCNC1=O | 9.7
CCc1nccn1CC#CCN1CCCC1=O | > 100
O=C1NCCN1CC#CCN1CCCC1 | > 3

Each compound was assayed against Muscarinic acetylcholine receptor (Rattus norvegicus) (UniProt P08482+P08483+P08485+P08911+P10980) (assay: Ratio of Ki value for QNB to that of Ki value for Oxo-M.).
Assay type: protein assay

SMILES | Ki ratio
Cn1ccn(CC#CCN2CCCC2)c1=O | 72
Cc1cn(CC#CCN2CCCC2=O)cn1 | 37
CN1CCN(CC#CCN2CCCC2)C1=O | 67
CC(=O)N(C)C(C)C#CCn1ccnc1C (configuration not stated) | 12
CC(=O)N(C)C(C)C#CCn1ccnc1 (configuration not stated) | 125
CCc1nccn1CC#CCN1CCCC1=O | 2
O=C1NCCN1CC#CCN1CCCC1 | 62

These compounds were tested on Mus musculus (assay: ED50 value determined as oxotremorine antagonism by measuring lacrimation in mice (in vivo)).
Assay type: functional

SMILES | ED50 [mg/kg]
Cc1cncn1CC#CCN(C)C(=O)N(C)C | 9.7
Cn1ccn(CC#CCn2ccnc2)c1=O | > 100
Cn1ccn(CC#CCN2CCCC2)c1=O | > 10
Cc1cn(CC#CCN2CCCC2=O)cn1 | 14.2
CN1CCN(CC#CCN2CCCC2)C1=O | > 3
CC(=O)N(C)C(C)C#CCn1ccnc1C (configuration not stated) | 0.05
CC(=O)N(C)C(C)C#CCn1ccnc1 (configuration not stated) | > 100
CN(C)CC#CCN1CCNC1=O | > 100
CCc1nccn1CC#CCN1CCCC1=O | 0.54
O=C1NCCN1CC#CCN1CCCC1 | > 3

What follows are compounds tested against Muscarinic acetylcholine receptor (assay: Binding affinity to muscarinic acetylcholine receptor was determined in presence of [3H]OXO-M radioligand (in vitro)).
Assay type: protein assay

SMILES | Ki [nM]
Cc1cncn1CC#CCN(C)C(=O)N(C)C | 82
Cn1ccn(CC#CCn2ccnc2)c1=O | 35
Cn1ccn(CC#CCN2CCCC2)c1=O | 7.1
Cc1cn(CC#CCN2CCCC2=O)cn1 | 10.3
CN1CCN(CC#CCN2CCCC2)C1=O | 2.7
CC(=O)N(C)C(C)C#CCn1ccnc1C (configuration not stated) | 1.6
CC(=O)N(C)C(C)C#CCn1ccnc1 (configuration not stated) | 12
CN(C)CC#CCN1CCNC1=O | 43
CCc1nccn1CC#CCN1CCCC1=O | 29.1
O=C1NCCN1CC#CCN1CCCC1 | 13
